Data published in US9045431B2, “Processes for the preparation of 5-HT2C receptor agonists” (Arena Pharmaceuticals, Inc., priority 2010, dated 2015).
Entries after “also recorded” stand apart in the source; their conditions may differ.

How the values were obtained:
[1] = Dynamic moisture sorption (DMS); type: physicochemical; conditions: for DMS result (hygroscopicity / form conversion): isotherm 25° C., 10% RH to 90% or 95% RH
Experimental: Dynamic moisture-sorption (DMS) studies were conducted using a dynamic moisture-sorption analyzer, VTI Corporation, SGA-100. Samples were prepared for DMS analysis by placing 5 mg to 20 mg of a compound or a salt thereof in a tared sample holder. The sample was placed on the hang-down wire of the VTI balance. A drying step was run, typically at 40° C. and 0.5-1% RH for 1-2 h. The isotherm temperature is 25° C. Defined % RH holds typically ranged from 10% RH to 90% RH or 95% RH, with intervals of 10 to 20% RH. A % weight change smaller than 0.010% over a specified number of minutes (typically 10-20), or up to 2 h, whichever occurs first, is required before continuing to the next % RH hold. The water content of the sample equilibrated as described above was determined at each % RH hold.

[2] = cited from earlier work; for reported side effect: in some patients
[3] = Competitive slurry experiments / solution-mediated phase transformation (thermodynamic stability of crystal forms); type: physicochemical; conditions: for relative thermodynamic stability among the anhydrous polymorphs: ambient / room temperature
Excerpt: The thermodynamic relationships between the Compound 1 hydrochloride salt hemihydrate Form III and the anhydrous polymorphs of Compound 1 hydrochloride salt were established by competitive slurry experiments in acetonitrile and acetone at various aw, values.
At the critical aw, a given anhydrous form and Compound 1 hydrochloride salt hemihydrate Form III will have equal solubility and can coexist in equilibrium. Below the critical aw, the anhydrous form is more thermodynamically stable, thus less soluble. Above the critical water activity, Compound 1 hydrochloride salt hemihydrate Form III is more thermodynamically stable, thus less soluble. Solids from the competitive slurry experiments were identified by PXRD. Slurries with known aw values were used instead of humidity chambers because solution-mediated phase transformations (SMPTs) are much faster than vapor-mediated phase transformations, especially near the critical aw. […] FIG. 16 illustrates the critical aw of form Compound 1 hydrochloride salt hemihydrate Form III, with respect to Compound 1 hydrochloride salt Form I, and Compound 1 hydrochloride salt, IV.
For enantiotropic polymorphs, the temperature that marks the point at which two polymorphs have the same thermodynamic stability is called the transition temperature (Tt).

[4] = cited from earlier work
[5] = pivotal phase 3 program, treated for up to two years, fraction of patients
[6] = pivotal phase 3 program, up to two years
[7] = second phase 3 trial, top quartile

C[C@H]1CNCCc2ccc(Cl)cc21.C[C@H]1CNCCc2ccc(Cl)cc21.Cl.Cl.O [(R)-8-Chloro-1-methyl-2,3,4,5-tetrahydro-1H-3-benzazepine Hydrochloride Hemihydrate Form III]
change in crystalline form by PXRD after the DVS cycle ([1]; after DVS cycle): no change | water adsorbed in DMS ([1]; at 90% RH): less than 0.5 wt % | DMS result (hygroscopicity / form conversion) [1]: substantially non-hygroscopic | DMS result (hygroscopicity / form conversion) ([1]; listed as Compound 1 Hydrochloride Salt Hemihydrate, Form III): FIG. 11: non-hygroscopic

CCN[C@@H](C)Cc1cccc(C(F)(F)F)c1 [d-fenfluramine]
cardiac valve defects, fraction of patients ([2]; reports that led to withdrawal by the FDA in 1998): up to one third

C[C@H]1CNCCc2ccc(Cl)cc21.Cl [Compound 1 hydrochloride salt Form I, (R)-8-Chloro-1-methyl-2,3,4,5-tetrahydro-1H-3-benzazepine Hydrochloride Salt Form I]
DMS result (hygroscopicity / form conversion) [1]: complete conversion to Compound 1 hydrochloride hemihydrate Form III | DMS result (hygroscopicity / form conversion) ([1]; listed as Compound 1 Hydrochloride Salt Form I): FIG. 3: Converts to Form III hemihydrate

C[C@H]1CNCCc2ccc(Cl)cc21.Cl [Compound 1 hydrochloride salt Form IV, (R)-8-Chloro-1-methyl-2,3,4,5-tetrahydro-1H-3-benzazepine Hydrochloride Salt Form IV]
DMS result (hygroscopicity / form conversion) [1]: converting to Compound 1 hydrochloride salt Form III | DMS result (hygroscopicity / form conversion) ([1]; listed as Compound 1 Hydrochloride Salt Form IV): FIG. 14: Converts to hemihydrate | relative thermodynamic stability among the anhydrous polymorphs [3]: most stable of the three anhydrous polymorphs; also recorded: more stable than Compound 1 hydrochloride salt Form I | relative humidity at which the form is not thermodynamically favored over hemihydrate Form III ([3]; ambient temperature): ≥ 20 % RH

C[C@H]1CNCCc2ccc(Cl)cc21.Cl [lorcaserin, (R)-8-Chloro-1-methyl-2,3,4,5-tetrahydro-1H-3-benzazepine hydrochloride]
adverse event that exceeded the placebo rate by 5% ([4]; clinical program): generally mild or moderate, transient headache | depression or suicidal ideation ([4]; clinical program): no signal | heart rate and blood pressure ([4]; clinical program): went down | quality of life ([4]; clinical program): improved | risk of cardiac valvulopathy ([4]; clinical program): did not increase | secondary endpoints (body composition, lipids, cardiovascular risk factors, glycemic parameters) ([4]; compared to placebo): improved compared to placebo | excess body weight lost ([4]; first phase 3 trial, based on a normal BMI of 25, fraction of excess body weight): about one-third | average weight lost, of their weight ([4]; pivotal phase 3 program, on average): about 8% | patients who achieved at least 5% weight loss [4, 5]: About two-thirds | patients who achieved at least 10% weight loss [4, 5]: over one-third | tolerability [4, 6]: excellent tolerability | weight loss (in words) [4, 6]: significant weight loss | average weight loss, top quartile of patients [4, 7]: 35 pounds | average weight loss, top quartile of patients, of body weight [4, 7]: 16%

C[C@H]1CNCCc2ccc(Cl)cc21.Cl [Compound 1 hydrochloride salt Form II, (R)-8-Chloro-1-methyl-2,3,4,5-tetrahydro-1H-3-benzazepine Hydrochloride Salt Form II]
DMS result (hygroscopicity / form conversion) [1]: converting to the hemihydrate Form III | DMS result (hygroscopicity / form conversion) ([1]; listed as Compound 1 Hydrochloride Salt Form II): FIG. 7: Converts to Form III hemihydrate | relative thermodynamic stability among the anhydrous polymorphs [3]: least stable anhydrous polymorph

CC(C)CC(N(C)C)C1(c2ccc(Cl)cc2)CCC1 (stereo not drawn) [Sibutramine]
reported side effect [2]: raised blood pressure

CCCCCCCCCCC[C@@H](C[C@@H]1OC(=O)[C@H]1CCCCCC)OC(=O)[C@H](CC(C)C)NC=O [Xenical™, Orlistat]
reported side effect [2]: gastrointestinal distress
